# Results reported in paper PMC10167348, “Structural mechanisms of TRPM7 activation and inhibition” (Nature Communications, 2023).
# “And” between values parts separate entries of the source, which are not always exact repeats. Identical values can stand only once. Like-named read-outs stand apart in the source and are kept apart here.
# Tests used:
# TRPM7 WT [1] = target: T1, TRPM7 WT (Mus musculus, UniProt Q923J1); assay: Aequorin-based Ca2+ influx assay, inhibition of TRPM7-mediated Ca2+ influx; assay type: cell-based
# T1 construct: expressed in transfected cells; host or cells: HEK 293T
# T1 sequence (Q923J1 whole entry): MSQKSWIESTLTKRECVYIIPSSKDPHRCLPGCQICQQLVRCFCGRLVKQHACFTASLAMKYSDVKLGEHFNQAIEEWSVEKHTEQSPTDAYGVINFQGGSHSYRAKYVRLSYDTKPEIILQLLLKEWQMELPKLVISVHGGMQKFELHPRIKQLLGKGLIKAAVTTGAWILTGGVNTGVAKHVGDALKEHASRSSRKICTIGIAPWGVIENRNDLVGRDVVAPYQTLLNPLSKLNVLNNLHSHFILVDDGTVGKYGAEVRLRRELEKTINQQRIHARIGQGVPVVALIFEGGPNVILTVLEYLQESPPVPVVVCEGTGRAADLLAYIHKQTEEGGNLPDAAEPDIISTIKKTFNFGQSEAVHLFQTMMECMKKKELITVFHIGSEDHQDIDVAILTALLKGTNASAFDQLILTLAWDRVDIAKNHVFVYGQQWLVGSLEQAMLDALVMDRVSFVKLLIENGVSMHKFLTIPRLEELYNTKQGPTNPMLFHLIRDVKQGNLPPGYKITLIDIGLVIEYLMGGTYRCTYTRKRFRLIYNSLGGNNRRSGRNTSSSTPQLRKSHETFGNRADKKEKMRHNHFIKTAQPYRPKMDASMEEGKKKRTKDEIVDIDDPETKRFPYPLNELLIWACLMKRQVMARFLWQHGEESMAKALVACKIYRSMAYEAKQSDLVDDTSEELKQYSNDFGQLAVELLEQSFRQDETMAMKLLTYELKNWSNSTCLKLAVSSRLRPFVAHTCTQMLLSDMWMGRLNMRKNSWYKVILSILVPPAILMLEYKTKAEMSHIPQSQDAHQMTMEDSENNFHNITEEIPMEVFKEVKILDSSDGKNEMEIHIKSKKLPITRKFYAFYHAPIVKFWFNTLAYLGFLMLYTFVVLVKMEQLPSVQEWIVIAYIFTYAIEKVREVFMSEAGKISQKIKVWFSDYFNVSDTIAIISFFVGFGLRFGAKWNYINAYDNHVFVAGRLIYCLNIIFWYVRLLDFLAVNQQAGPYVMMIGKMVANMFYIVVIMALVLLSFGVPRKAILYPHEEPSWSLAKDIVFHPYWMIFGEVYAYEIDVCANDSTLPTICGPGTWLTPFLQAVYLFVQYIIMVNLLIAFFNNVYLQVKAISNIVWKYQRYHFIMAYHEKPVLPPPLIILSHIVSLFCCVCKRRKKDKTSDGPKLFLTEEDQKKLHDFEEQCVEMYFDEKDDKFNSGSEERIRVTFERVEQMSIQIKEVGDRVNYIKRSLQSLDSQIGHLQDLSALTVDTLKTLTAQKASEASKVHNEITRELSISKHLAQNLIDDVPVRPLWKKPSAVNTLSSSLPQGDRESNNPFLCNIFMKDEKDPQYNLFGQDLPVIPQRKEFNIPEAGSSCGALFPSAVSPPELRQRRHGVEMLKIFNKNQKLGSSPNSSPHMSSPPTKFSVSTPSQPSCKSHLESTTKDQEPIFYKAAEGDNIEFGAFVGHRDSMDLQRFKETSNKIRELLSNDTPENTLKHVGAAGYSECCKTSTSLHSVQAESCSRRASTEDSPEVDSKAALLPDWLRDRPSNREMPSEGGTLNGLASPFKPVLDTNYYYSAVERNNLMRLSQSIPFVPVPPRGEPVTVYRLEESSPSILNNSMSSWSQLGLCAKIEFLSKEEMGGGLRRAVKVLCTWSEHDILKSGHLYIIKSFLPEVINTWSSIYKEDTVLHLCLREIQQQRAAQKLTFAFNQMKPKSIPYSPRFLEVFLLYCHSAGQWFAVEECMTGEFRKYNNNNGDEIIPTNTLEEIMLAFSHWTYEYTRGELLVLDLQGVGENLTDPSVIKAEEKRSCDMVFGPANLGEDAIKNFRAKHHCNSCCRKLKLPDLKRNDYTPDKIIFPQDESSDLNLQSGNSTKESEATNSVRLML
# Experimental: (§1) Measurements of [Ca^2+]i were performed as reported previously with several modifications[2],[52],[54]. HEK 293T cells (mycoplasma test negative, ATCC #CRL3216) were maintained at 37 °C and 5% CO2 in DMEM supplemented with 10% fetal calf serum, 100 µg/ml streptomycin and 100 U/ml penicillin (all from Thermo Fisher Scientific). Cells cultured in six-well plates (~60% confluence) were transfected with 2 µg/dish Trpm7 plasmid DNA and 0.1 µg/dish pG5A plasmid DNA encoding eGFP fused to Aequorea victoria aequorin, using Lipofectamine 2000 (Thermo Fisher Scientific). Twenty-four hours after transfection, the cells were washed with Mg^2+-free HEPES-buffered saline (Mg^2+-free HBS) containing 140 mM NaCl, 6 mM KCl, 0.5 mM CaCl2, 10 mM HEPES (pH 7.4) and 5 mM glucose, and mechanically resuspended in the Mg^2+-free HBS. For reconstitution of aequorin, cell suspensions were incubated with 5 µM coelenterazine (Biaffin GmbH) in the Mg^2+-free HBS for 30 min at room temperature. Cells were washed twice by centrifugation at 600 rpm for 5 min (Heraeus Pico 17 microcentrifuge, Thermo Fisher Scientific), resuspended in the Mg^2+-free HBS and aliquoted into 96-well plates (1 × 10^5 cells per well). Luminescence was detected at room temperature using a FLUOstar OPTIMA microplate reader (BMG LABTECH GmbH). To monitor the NS8593- and VER155008-induced inhibition of TRPM7-mediated Ca^2+ influx, the extracellular concentration of Ca^2+ was increased to 5 mM by injecting the CaCl2-containing Mg^2+-free HBS in the absence or presence of the inhibitors. […] To study activation by naltriben, TRPM7-transfected cells were exposed to Mg^2+-free HBS containing different concentrations of the agonist. The experiments were terminated by lysing cells with 0.1% (v/v) Triton X-100 in the Mg^2+-free HBS to record the total bioluminescence. The bioluminescence rates (counts/s) were analyzed at 1-s intervals and calibrated as [Ca^2+]i values using the following equation:1 p[Ca^2+]i=0.332588(−log(k))+5.5593 where k represents the rate of aequorin consumption, i.e., counts/s divided by the total number of counts.
# (§2) To determine the IC50 values for NS8593 and VER155008 (EC50 for naltriben), the data were fitted with the following logistic equation:2 Ec=Emin+Emax+Emin/1+c^h/IC50^h where E(c) is the functional effect at the concentration c of the compound, Emin is the minimal effect, Emax is the maximal effect, IC50 (EC50) is the concentration of the compound that produces the half-maximal effect, and h is the Hill coefficient. Fitting of dose-response curves was performed using GraphPad Prism 8.4.0. Data are presented as the mean ± SEM.
# TRPM7-A981L = target: T2, TRPM7-A981L (Mus musculus, UniProt Q923J1, A981L); assay: as above; assay type: cell-based
# T2 construct: expressed in transfected cells; host or cells: HEK 293T
# T2 sequence (Q923J1 whole entry A981L): as the sequence (Q923J1 whole entry) above, with A981L counted along it
# Experimental: as §1, §2
# TRPM7-A981V = target: T3, TRPM7-A981V (Mus musculus, UniProt Q923J1, A981V); assay: as above; assay type: cell-based
# T3 construct: expressed in transfected cells; host or cells: HEK 293T
# T3 sequence (Q923J1 whole entry A981V): as the sequence (Q923J1 whole entry) above, with A981V counted along it
# Experimental: as §1, §2
# TRPM7-M991A = target: T4, TRPM7-M991A (Mus musculus, UniProt Q923J1, M991A); assay: as above; assay type: cell-based
# T4 construct: expressed in transfected cells; host or cells: HEK 293T
# T4 sequence (Q923J1 whole entry M991A): as the sequence (Q923J1 whole entry) above, with M991A counted along it
# Experimental: as §1, §2
# TRPM7-N1098Q [2] = target: T5, TRPM7-N1098Q (Mus musculus, UniProt Q923J1, N1098Q); assay: as above; assay type: cell-based
# T5 construct: expressed in transfected cells; host or cells: HEK 293T
# T5 sequence (Q923J1 whole entry N1098Q): as the sequence (Q923J1 whole entry) above, with N1098Q counted along it
# Experimental: as §1, §2
# TRPM7-W1111A = target: T6, TRPM7-W1111A (Mus musculus, UniProt Q923J1, W1111A); assay: as above; assay type: cell-based
# T6 construct: expressed in transfected cells; host or cells: HEK 293T
# T6 sequence (Q923J1 whole entry W1111A): as the sequence (Q923J1 whole entry) above, with W1111A counted along it
# Experimental: as §1, §2
# TRPM7 WT [3] = target: T1, TRPM7 WT; assay: Aequorin-based Ca2+ influx assay, activation by naltriben; assay type: cell-based; details: for TRPM7 activation, fold: replicate values
# Experimental: as §1, §2
# TRPM7-L671A = target: T7, TRPM7-L671A (Mus musculus, UniProt Q923J1, L671A); assay: as above; assay type: cell-based
# T7 construct: expressed in transfected cells; host or cells: HEK 293T
# T7 sequence (Q923J1 whole entry L671A): as the sequence (Q923J1 whole entry) above, with L671A counted along it
# Experimental: as §1, §2
# TRPM7-S744A = target: T8, TRPM7-S744A (Mus musculus, UniProt Q923J1, S744A); assay: as above; assay type: cell-based
# T8 construct: expressed in transfected cells; host or cells: HEK 293T
# T8 sequence (Q923J1 whole entry S744A): as the sequence (Q923J1 whole entry) above, with S744A counted along it
# Experimental: as §1, §2
# TRPM7-N1098Q [4] = system: TRPM7-N1098Q; set-up: method as in Schmidt et al., 2022, PMID: 35389104; details: ref Schmidt et al., 2022, PMID: 35389104; cited from earlier work
# [5] = Solubility of the compound (authors' remark); details: mM range could not be examined
# [6] = [NS8593] 7.0 µM, replicate values, read-out: TRPM7 activity, 100%
# [7] = [NS8593] 0.3 µM, replicate values, read-out: TRPM7 activity, 100%
# [8] = [NS8593] 0.7 µM, replicate values, read-out: TRPM7 activity, 100%
# [9] = [NS8593] 1.0 µM, replicate values, read-out: TRPM7 activity, 100%
# [10] = [NS8593] 3.0 µM, replicate values, read-out: TRPM7 activity, 100%
structure (smiles),measurement,setting,value
c1ccc2c(c1)CCC[C@H]2Nc1nc2ccccc2[nH]1 [NS8593],remaining activity at 7 µM,TRPM7 WT [1]; [6],0%
same,remaining activity at 30 µM,"TRPM7 WT [1]; [NS8593] 30.0 µM, replicate values, read-out: TRPM7 activity, 100%",0%
same,remaining activity at 50 µM,"TRPM7 WT [1]; [NS8593] 50.0 µM, replicate values, read-out: TRPM7 activity, 100%",0%
same,Hill coefficient,"TRPM7 WT [1]; antagonist, mean ± SEM",–1.73 ± 0.26
same,IC50,"TRPM7 WT [1]; antagonist, mean ± SEM",910 ± 80 nM
same,remaining activity at 0.3 µM,TRPM7-A981L; [7],105%
same,remaining activity at 0.7 µM,TRPM7-A981L; [8],114%
same,remaining activity at 1 µM,TRPM7-A981L; [9],112%
same,remaining activity at 3 µM,TRPM7-A981L; [10],99.4%
same,Hill coefficient,"TRPM7-A981L; antagonist, mean ± SEM",–1.61 ± 0.45
same,IC50,"TRPM7-A981L; antagonist, mean ± SEM",11.6 ± 2.75 µM
same,remaining activity at 0.3 µM,TRPM7-A981V; [7],98.9%
same,remaining activity at 0.7 µM,TRPM7-A981V; [8],97.4%
same,remaining activity at 7 µM,TRPM7-A981V; [6],81.9%
same,Hill coefficient,"TRPM7-A981V; antagonist, mean ± SEM",–1.45 ± 0.50
same,IC50,"TRPM7-A981V; antagonist, mean ± SEM, read-out: IC50",21.9 ± 12.3 µM
same,remaining activity at 0.7 µM,"TRPM7-M991A; M991A in the presence of 10 µM VER155008, [NS8593] 0.7 µM, replicate values, read-out: TRPM7 activity, 100%",77%
same,remaining activity at 1 µM,"TRPM7-M991A; M991A in the presence of 10 µM VER155008, [NS8593] 1.0 µM, replicate values, read-out: TRPM7 activity, 100%",61.9%
same,remaining activity at 3 µM,"TRPM7-M991A; M991A in the presence of 10 µM VER155008, [NS8593] 3.0 µM, replicate values, read-out: TRPM7 activity, 100%",17.1%
same,remaining activity at 5 µM,"TRPM7-M991A; M991A in the presence of 10 µM VER155008, [NS8593] 5.0 µM, replicate values, read-out: TRPM7 activity, 100%",11.9%
same,remaining activity at 1 µM,"TRPM7-M991A; M991A without VER155008, [NS8593] 1.0 µM, replicate values, read-out: TRPM7 activity, 100%",28.8%
same,Hill coefficient,"TRPM7-M991A; M991A, antagonist, no added second inhibitor, mean ± SEM",–1.24 ± 0.15
same,IC50,"TRPM7-M991A; M991A, antagonist, no added second inhibitor, mean ± SEM, read-out: IC50",590 ± 50 nM
same,Hill coefficient,"TRPM7-M991A; M991A, in the presence of 10 µM VER155008, mean ± SEM",–1.43 ± 0.11
same,remaining activity at 0.3 µM,"TRPM7-N1098Q [2]; N1097Q (so in the source), [NS8593] 0.3 µM, replicate values, read-out: TRPM7 activity, 100%",90.4%
same,remaining activity at 0.5 µM,"TRPM7-N1098Q [2]; N1097Q (so in the source), [NS8593] 0.5 µM, replicate values, read-out: TRPM7 activity, 100%",95%
same,remaining activity at 0.7 µM,"TRPM7-N1098Q [2]; N1097Q (so in the source), [NS8593] 0.7 µM, replicate values, read-out: TRPM7 activity, 100%",87.7%
same,remaining activity at 1 µM,"TRPM7-N1098Q [2]; N1097Q (so in the source), [NS8593] 1.0 µM, replicate values, read-out: TRPM7 activity, 100%",82.4%
same,remaining activity at 5 µM,"TRPM7-N1098Q [2]; N1097Q (so in the source), [NS8593] 5.0 µM, replicate values, read-out: TRPM7 activity, 100%",64.3%
same,remaining activity at 7 µM,"TRPM7-N1098Q [2]; N1097Q (so in the source), [NS8593] 7.0 µM, replicate values, read-out: TRPM7 activity, 100%",59.4%
same,remaining activity at 10 µM,"TRPM7-N1098Q [2]; N1097Q (so in the source), [NS8593] 10.0 µM, replicate values, read-out: TRPM7 activity, 100%",43.2%
same,"TRPM7 activity, 100%","TRPM7-N1098Q [2]; N1097Q (so in the source), [NS8593] 50.0 µM, replicate values",0.0%
same,remaining activity at 50 µM,"TRPM7-N1098Q [2]; N1097Q (so in the source), [NS8593] 50.0 µM, replicate values, read-out: TRPM7 activity, 100%",0%
same,Hill coefficient,"TRPM7-N1098Q [2]; N1098Q, antagonist, mean ± SEM",–0.93 ± 0.20
same,IC50,"TRPM7-N1098Q [2]; N1098Q, antagonist, mean ± SEM",20.5 ± 10.7 µM
same,remaining activity at 0.5 µM,"TRPM7-W1111A; [NS8593] 0.5 µM, replicate values, read-out: TRPM7 activity, 100%",103%
same,remaining activity at 0.7 µM,TRPM7-W1111A; [8],103%
same,remaining activity at 1 µM,TRPM7-W1111A; [9],98.1%
same,remaining activity at 3 µM,TRPM7-W1111A; [10],62.5%
same,remaining activity at 7 µM,TRPM7-W1111A; [6],50.3%
same,Hill coefficient,"TRPM7-W1111A; antagonist, mean ± SEM",–1.54 ± 0.24
same,IC50,"TRPM7-W1111A; antagonist, mean ± SEM",5.14 ± 0.45 µM
"Oc1ccc2c3c1O[C@H]1c4oc5ccccc5c4C[C@@]4(O)[C@@H](C2)N(CC2CC2)CC[C@]314 [Naltriben, naltriben]",EC50,TRPM7 WT [3],65.8 ± 12.4 µM
same,"TRPM7 activation, fold","TRPM7 WT [3]; WT, [Naltriben] 100 µM",3.40 fold and 2.89 fold and 2.30 fold and 2.40 fold and 3.03 fold and 3.14 fold
same,"TRPM7 activation, fold","TRPM7 WT [3]; WT, [Naltriben] 200 µM",4.23 fold and 3.70 fold and 3.66 fold and 2.99 fold and 3.63 fold and 3.89 fold
same,"TRPM7 activation, fold","TRPM7 WT [3]; WT, [Naltriben] 300 µM",4.35 fold and 3.85 fold and 3.80 fold and 3.47 fold and 3.56 fold and 4.23 fold
same,"TRPM7 activation, fold","TRPM7 WT [3]; WT, [Naltriben] 400 µM",4.51 fold and 3.90 fold and 3.86 fold and 3.52 fold and 3.70 fold and 4.17 fold
same,"TRPM7 activation, fold","TRPM7 WT [3]; WT, [Naltriben] 500 µM",4.41 fold and 4.17 fold and 4.05 fold and 3.42 fold and 4.20 fold and 4.10 fold
same,Hill coefficient,"TRPM7 WT [3]; WT, agonist, mean ± SEM",1.23 ± 0.25
same,EC50,TRPM7-L671A,145 ± 22.9 µM
same,Hill coefficient,"TRPM7-L671A; L671A, agonist, mean ± SEM",1.68 ± 0.32
same,EC50,TRPM7-S744A,71.8 ± 9.7 µM
same,Hill coefficient,"TRPM7-S744A; S744A, agonist, mean ± SEM",1.48 ± 0.25
same,response of the N1098Q variant to the agonist,TRPM7-N1098Q [4],did not respond
same,solubility,[5],limited solubility
